# Experimental data as given in US10246462B2, “Chemokine receptor modulators and uses thereof” (FLX Bio, Inc., priority 2016, dated 2019).
# Structures can show the parent of a compound that is named as a salt.
# Biological target: CCR4 (Homo sapiens (Human), UniProt P51679)
# Experiment: Calcium mobilization (Ca Flux) assay
# Assay type: cell-based
# Procedure: Calcium Mobilization Assay. Calcium mobilization experiments may be performed by labeling the human T-cell line CEM with […] dye (45 min at room temperature), washing with PBS, and re-suspending into flux buffer (HBSS with 1% FBS).
# CCR4, sequence (P51679 whole entry): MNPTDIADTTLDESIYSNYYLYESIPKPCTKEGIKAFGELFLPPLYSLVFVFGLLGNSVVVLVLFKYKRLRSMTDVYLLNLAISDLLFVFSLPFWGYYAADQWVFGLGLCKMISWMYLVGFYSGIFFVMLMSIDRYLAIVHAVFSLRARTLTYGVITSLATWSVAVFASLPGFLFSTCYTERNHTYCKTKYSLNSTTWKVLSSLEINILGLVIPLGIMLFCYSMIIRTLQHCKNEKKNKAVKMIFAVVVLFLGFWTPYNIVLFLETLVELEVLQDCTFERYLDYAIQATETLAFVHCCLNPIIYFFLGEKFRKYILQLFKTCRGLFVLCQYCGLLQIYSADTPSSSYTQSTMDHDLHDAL
row,IC50,Compound
1,> 500 nM,"Cc1nn([C@H](C)c2ccc(Cl)cc2Cl)c2nc(N3CC[C@H](N4CCC[C@H]4C(=O)O)[C@H](C)C3)cnc12 [Example 34, ((3R,4S)-1-(1-((R)-1-(2,4-Dichlorophenyl)ethyl)-3-methyl-1H-pyrazolo[3,4-b]pyrazin-6-yl)-3-methylpiperidin-4-yl)-L-proline 2,2,2-trifluoroacetate]"
2,100 to 500 nM,"Cc1nn([C@H](C)c2ccc(Cl)cc2Cl)c2nc(C3=CCC(N4CCC[C@H]4CO)CC3)cnc12 (stereo partly drawn) [Example 68, ((2S)-1-(4-(1-((R)-1-(2,4-Dichlorophenyl)ethyl)-3-methyl-1H-pyrazolo[3,4-b]pyrazin-6-yl)cyclohex-3-en-1-yl)pyrrolidin-2-yl)methanol]"
3,100 to 500 nM,"CC1CN(c2cnc3cnn(C(C)c4ccc(Cl)cc4Cl)c3n2)CCC1N1CCCCC1 (centres unmarked) [Example 8, 1-(1-(2,4-Dichlorophenyl)ethyl)-6-(3′-methyl-[1,4′-bipiperidin]-1′-yl)-1H-pyrazolo[3,4-b]pyrazine hydrochloride]"
4,100 to 500 nM,"C[C@@H]1CC(c2cnc3c(C#N)nn([C@H](C)c4ccc(Cl)cc4Cl)c3n2)=CC[C@@H]1N1CCC[C@H]1CN [Example 81, 6-((4S,5R)-4-((S)-2-(Aminomethyl)pyrrolidin-1-yl)-5-methylcyclohex-1-en-1-yl)-1-((R)-1-(2,4-dichlorophenyl)ethyl)-1H-pyrazolo[3,4-b]pyrazine-3-carbonitrile hydrochloride]"
5,100 to 500 nM,"C[C@H](c1ccc(Cl)cc1Cl)n1nc(C#N)c2ncc(C3=CC[C@@H](N4CCC[C@H]4CO)[C@@H](C)C3)nc21 [Example 75, 1-((R)-1-(2,4-Dichlorophenyl)ethyl)-6-((4R,5S)-4-((S)-2-(hydroxymethyl)pyrrolidin-1-yl)-5-methylcyclohex-1-en-1-yl)-1H-pyrazolo[3,4-b]pyrazine-3-carbonitrile]"
6,< 100 nM,"CC1CC(c2cnc3c(C#N)nn([C@H](C)c4ccc(Cl)cc4Cl)c3n2)=CCC1N1CCC[C@H]1CCC(=O)O (mixture of isomers) [Example 74, 3-((2S)-1-(4-(3-Cyano-1-((R)-1-(2,4-dichlorophenyl)ethyl)-1H-pyrazolo[3,4-b]pyrazin-6-yl)-6-methylcyclohex-3-en-1-yl)pyrrolidin-2-yl)propanoic acid 2,2,2-trifluoroacetate]"
7,100 to 500 nM,"CC(c1ccc(Cl)cc1Cl)n1nc(C(N)=O)c2ncc(N3CCC(N4CCCCC4)C(CO)C3)nc21 (centres unmarked) [Example 27, 1-(1-(2,4-Dichlorophenyl)ethyl)-6-(3′-(hydroxymethyl)-[1,4′-bipiperidin]-1′-yl)-1H-pyrazolo[3,4-b]pyrazine-3-carboxamide hydrochloride]"
8,100 to 500 nM,"C[C@@H]1CN(c2cnc3c(C#N)nn([C@H](C)c4ccc(Cl)cc4Cl)c3n2)CC[C@@H]1N1CCC[C@@H](CC(=O)O)C1 [Example 39, 2-((3S,3′R,4′S)-1′-(3-Cyano-1-((R)-1-(2,4-dichlorophenyl)ethyl)-1H-pyrazolo[3,4-b]pyrazin-6-yl)-3′-methyl-[1,4′-bipiperidin]-3-yl)acetic acid formate]"
9,> 500 nM,"Cc1nn([C@H](C)c2ccc(Cl)cc2Cl)c2nc(N3CCC(N4CCCC(CCC(=O)O)C4)C(C)C3)cnc12 (mixture of isomers) [Example 41, 3-(1′-(1-((R)-1-(2,4-dichlorophenyl)ethyl)-3-methyl-1H-pyrazolo[3,4-b]pyrazin-6-yl)-3′-methyl-[1,4′-bipiperidin]-3-yl)propanoic acid]"
10,< 100 nM,"C[C@@H]1CN(c2cnc3c(C#N)nn([C@H](C)c4ccc(Cl)cc4Cl)c3n2)CC[C@@H]1N1CCCCC1 [Example 23, 1-((R)-1-(2,4-Dichlorophenyl)ethyl)-6-((3′R,4′S)-3′-methyl-[1,4′-bipiperidin]-1′-yl)-1H-pyrazolo[3,4-b]pyrazine-3-carbonitrile hydrochloride]"
11,> 500 nM,"COC(C[C@@H]1CCCN1C1CCN(c2cnc3c(C)nn([C@H](C)c4ccc(Cl)cc4Cl)c3n2)CC1C)C(=O)O (mixture of isomers) [Example 55, 3-((2S)-1-(1-(1-((R)-1-(2,4-Dichlorophenyl)ethyl)-3-methyl-1H-pyrazolo[3,4-b]pyrazin-6-yl)-3-methylpiperidin-4-yl)pyrrolidin-2-yl)-2-methoxypropanoic acid 2,2,2-trifluoroacetae]"
12,100 to 500 nM,"Cc1nn([C@H](C)c2ccc(Cl)cc2Cl)c2nc(N3CCC(N4CCC[C@H]4CCC(O)C(F)(F)F)C(C)C3)cnc12 (single isomer, unassigned) [Example 46, hydrochloride]"
13,100 to 500 nM,"C[C@@H]1CN(c2cnc3c(C#N)nn([C@H](C)c4ccc(Cl)cc4Cl)c3n2)CC[C@@H]1N1CCC[C@H]1C(=O)O [Example 35, ((3R,4S)-1-(3-Cyano-1-((R)-1-(2,4-dichlorophenyl)ethyl)-1H-pyrazolo[3,4-b]pyrazin-6-yl)-3-methylpiperidin-4-yl)-L-proline 2,2,2-trifluoroacetate]"
14,100 to 500 nM,"Cc1nn([C@H](C)c2ccc(Cl)cc2Cl)c2nc(N3C[C@@H](C)[C@@H](N4CCCC4)C[C@@H]3C)cnc12 [Example 19, 1-((R)-1-(2,4-Dichlorophenyl)ethyl)-6-((2S,4S,5R)-2,5-dimethyl-4-(pyrrolidin-1-yl)piperidin-1-yl)-3-methyl-1H-pyrazolo[3,4-b]pyrazine hydrochloride]"
15,100 to 500 nM,"Cc1nn([C@H](C)c2ccc(Cl)cc2Cl)c2nc(N3CCC(N4CCC[C@H]4CC(O)C(=O)O)C(C)C3)cnc12 (stereo partly drawn) [Example 59, 3-((2S)-1-(1-(1-((R)-1-(2,4-Dichlorophenyl)ethyl)-3-methyl-1H-pyrazolo[3,4-b]pyrazin-6-yl)-3-methylpiperidin-4-yl)pyrrolidin-2-yl)-2-hydroxypropanoic acid 2,2,2-trifluoroacetate]"
16,100 to 500 nM,"Cc1nn([C@H](C)c2ccc(Cl)cc2Cl)c2nc(C3=CCC(N4CCC[C@H]4C(=O)O)C(C)C3)cnc12 (stereo partly drawn) [Example 70, (4-(1-((R)-1-(2,4-Dichlorophenyl)ethyl)-3-methyl-1H-pyrazolo[3,4-b]pyrazin-6-yl)-6-methylcyclohex-3-en-1-yl)-L-proline trifluoroacetate]"
17,100 to 500 nM,"Cc1nn([C@H](C)c2ccc(Cl)cc2Cl)c2nc(N3CC[C@H](N4CCC[C@@H](CC(=O)O)C4)[C@H](C)C3)cnc12 [Example 38, 2-((3S,3′R,4′S)-1′-(1-((R)-1-(2,4-Dichlorophenyl)ethyl)-3-methyl-1H-pyrazolo[3,4-b]pyrazin-6-yl)-3′-methyl-[1,4′-bipiperidin]-3-yl)acetic acid formate]"
18,< 100 nM,"C[C@@H]1CN(c2cnc3c(C#N)nn([C@H](C)c4ccc(Cl)cc4Cl)c3n2)CC[C@@H]1N1CCC[C@H]1CCC(N)=O [Example 48, 3-((S)-1-((3R,4S)-1-(3-Cyano-1-((R)-1-(2,4-dichlorophenyl)ethyl)-1H-pyrazolo[3,4-b]pyrazin-6-yl)-3-methylpiperidin-4-yl)pyrrolidin-2-yl)propanamide 2,2,2-trifluoroacetate]"
19,100 to 500 nM,"Cc1nn([C@H](C)c2ccc(Cl)cc2Cl)c2nc(N3CC[C@H](N4CCC[C@@H]4C)[C@H](C)C3)cnc12 [Example 22, 1-((R)-1-(2,4-Dichlorophenyl)ethyl)-3-methyl-6-((3R,4S)-3-methyl-4-((S)-2-methylpyrrolidin-1-yl)piperidin-1-yl)-1H-pyrazolo[3,4-b]pyrazine hydrochloride]"
20,100 to 500 nM,"CCC1CN(c2cnc3c(C#N)nn(C(C)c4ccc(Cl)cc4Cl)c3n2)CCC1N1CCCCC1 (centres unmarked) [Example 7, 1-(1-(2,4-Dichlorophenyl)ethyl)-6-(3′-ethyl-[1,4′-bipiperidin]-1′-yl)-1H-pyrazolo[3,4-b]pyrazine-3-carbonitrile 2,2,2-trifluoroacetate]"
21,> 500 nM,"Cc1nn([C@H](C)c2ccc(Cl)cc2Cl)c2nc(N3CC[C@@H](N4CCC[C@@H](CCC(=O)O)C4)[C@@H](C)C3)cnc12 [Example 40, 3-((3S,3′S,4′R)-1′-(1-((R)-1-(2,4-Dichlorophenyl)ethyl)-3-methyl-1H-pyrazolo[3,4-b]pyrazin-6-yl)-3′-methyl-[1,4′-bipiperidin]-3-yl)propanoic acid 2,2,2-trifluoroacetate]"
22,< 100 nM,"C[C@@H]1CC(c2cnc3c(C#N)nn([C@H](C)c4ccc(Cl)cc4Cl)c3n2)=CCC1N1CCC[C@H]1C(O)CS(C)(=O)=O (stereo partly drawn) [Example 87, 1-((R)-1-(2,4-Dichlorophenyl)ethyl)-6-((4S,5R)-4-((2S)-2-(1-hydroxy-2-(methylsulfonyl)ethyl)pyrrolidin-1-yl)-5-methylcyclohex-1-en-1-yl)-1H-pyrazolo[3,4-b]pyrazine-3-carbonitrile hydrochloride]"
23,< 100 nM,"Cc1nn([C@H](C)c2ccc(Cl)cc2Cl)c2nc(N3CC[C@H](N4CCC[C@H]4CCC(N)=O)[C@H](C)C3)cnc12 [Example 44, 3-((S)-1-((3R,4S)-1-(1-((R)-1-(2,4-Dichlorophenyl)ethyl)-3-methyl-1H-pyrazolo[3,4-b]pyrazin-6-yl)-3-methylpiperidin-4-yl)pyrrolidin-2-yl)propanamide hydrochloride]"
24,100 to 500 nM,"Cc1nn([C@H](C)c2ccc(Cl)cc2Cl)c2nc(N3CC[C@H](N4CCC[C@H]4C)[C@H](C(=O)O)C3)cnc12 [Example 30, (3R,4S)-1-(1-((R)-1-(2,4-Dichlorophenyl)ethyl)-3-methyl-1H-pyrazolo[3,4-b]pyrazin-6-yl)-4-((R)-2-methylpyrrolidin-1-yl)piperidine-3-carboxylic acid hydrochloride]"
25,100 to 500 nM,"Cc1nn([C@H](C)c2ccc(Cl)cc2Cl)c2nc(N3CCC(N4CCC[C@H]4CCC(=O)O)CC3)cnc12 [Example 51, 3-((S)-1-(1-(1-((R)-1-(2,4-Dichlorophenyl)ethyl)-3-methyl-1H-pyrazolo[3,4-b]pyrazin-6-yl)piperidin-4-yl)pyrrolidin-2-yl)propanoic acid 2,2,2-trifluoroacetate]"

row,Compound,IC50
1,"C[C@H](c1ccc(Cl)cc1Cl)n1nc(C#N)c2ncc(C3=CC[C@@H](N4CCC[C@H]4C(N)=O)[C@@H](C)C3)nc21 [Example 80, (S)-1-((1R,6S)-4-(3-Cyano-1-((R)-1-(2,4-dichlorophenyl)ethyl)-1H-pyrazolo[3,4-b]pyrazin-6-yl)-6-methylcyclohex-3-en-1-yl)pyrrolidine-2-carboxamide hydrochloride]",100 to 500 nM
